Laboratory results from the supplement of paper PMC13380429.

How the values were obtained:
Settings in all cases: 72 h
HepG2 [1] = test: relative viability EC50 (midpoint between 100% and the lowest measured viability); higher = less toxic
Caco-2 [2] = test: as above
U2OS [3] = test: as above
Vero E6 [4] = test: as above
Calu-3 [5] = test: as above
HepG2 [6] = test: drug sensitivity score (DSS) for viability; higher = more toxic; extreme values may be limits of the assay
Caco-2 [7] = test: as above
U2OS [8] = test: as above
Vero E6 [9] = test: as above
Calu-3 [10] = test: as above
HepG2 [11] = test: cell viability relative to DMSO; higher = less toxic
Caco-2 [12] = test: as above
U2OS [13] = test: as above
Vero E6 [14] = test: as above
Calu-3 [15] = test: as above

For Cc1ccc(C(=O)C(C)CN2CCCCC2)cc1 (stereo not given) [tolperisone], the “relative viability EC50” value (HepG2 [1]) was greater than 10 µM, the “relative viability EC50” value (Caco-2 [2]) was greater than 10 µM and the “relative viability EC50” value (U2OS [3]) was greater than 10 µM. The “relative viability EC50” value (Vero E6 [4]) was greater than 10 µM, the “relative viability EC50” value (Calu-3 [5]) was greater than 10 µM and the drug sensitivity score (HepG2 [6]) was 0.1. The drug sensitivity score (Caco-2 [7]) was 0, the drug sensitivity score (U2OS [8]) was 0 and the drug sensitivity score (Vero E6 [9]) was 0. The drug sensitivity score (Calu-3 [10]) was 0, the cell viability (HepG2 [11]; 1 nM) was 94.2% and the cell viability (HepG2 [11]; 10 nM) was 95%. The cell viability (HepG2 [11]; 100 nM) was 96.3%, the cell viability (HepG2 [11]; 1000 nM) was 102% and the cell viability (HepG2 [11]; 10000 nM) was 86.5%. For the same molecule, the cell viability (Caco-2 [12]; 1 nM) was 92.4%, the cell viability (Caco-2 [12]; 10 nM) was 98.5% and the cell viability (Caco-2 [12]; 100 nM) was 94.9%. The cell viability (Caco-2 [12]; 1000 nM) was 94.4%, the cell viability (Caco-2 [12]; 10000 nM) was 94.6% and the cell viability (U2OS [13]; 1 nM) was 102%. For the same molecule, the cell viability (U2OS [13]; 10 nM) was 100%, the cell viability (U2OS [13]; 100 nM) was 97.2% and the cell viability (U2OS [13]; 1000 nM) was 98.4%. The cell viability (U2OS [13]; 10000 nM) was 98.1%, the cell viability (Vero E6 [14]; 1 nM) was 97.6% and the cell viability (Vero E6 [14]; 10 nM) was 99.4%. The cell viability (Vero E6 [14]; 100 nM) was 104%, the cell viability (Vero E6 [14]; 1000 nM) was 100% and the cell viability (Vero E6 [14]; 10000 nM) was 99.4%. For the same molecule, the cell viability (Calu-3 [15]; 1 nM) was 107%, the cell viability (Calu-3 [15]; 10 nM) was 93.2% and the cell viability (Calu-3 [15]; 100 nM) was 110%. For the same molecule, the cell viability (Calu-3 [15]; 1000 nM) was 100% and the cell viability (Calu-3 [15]; 10000 nM) was 99.4%.

With CNCC(O)c1ccc(O)c(O)c1 (racemic) [DL-Adrenaline] the “relative viability EC50” value (HepG2 [1]) was greater than 10 µM, the “relative viability EC50” value (Caco-2 [2]) was greater than 10 µM and the “relative viability EC50” value (U2OS [3]) was greater than 10 µM. The “relative viability EC50” value (Vero E6 [4]) was greater than 10 µM, the “relative viability EC50” value (Calu-3 [5]) was greater than 10 µM and the drug sensitivity score (HepG2 [6]) was 0. It also gave a drug sensitivity score (Caco-2 [7]) of 0, a drug sensitivity score (U2OS [8]) of 0 and a drug sensitivity score (Vero E6 [9]) of 0. It also gave a drug sensitivity score (Calu-3 [10]) of 0, a cell viability (HepG2 [11]; 1 nM) of 105% and a cell viability (HepG2 [11]; 10 nM) of 90.8%. For the same molecule, the cell viability (HepG2 [11]; 100 nM) was 110%, the cell viability (HepG2 [11]; 1000 nM) was 99.4% and the cell viability (HepG2 [11]; 10000 nM) was 113%. For the same molecule, the cell viability (Caco-2 [12]; 1 nM) was 94.8%, the cell viability (Caco-2 [12]; 10 nM) was 97.8% and the cell viability (Caco-2 [12]; 100 nM) was 90.1%. It also gave a cell viability (Caco-2 [12]; 1000 nM) of 93.7%, a cell viability (Caco-2 [12]; 10000 nM) of 95.7% and a cell viability (U2OS [13]; 1 nM) of 98.7%. For the same molecule, the cell viability (U2OS [13]; 10 nM) was 99.6%, the cell viability (U2OS [13]; 100 nM) was 89% and the cell viability (U2OS [13]; 1000 nM) was 99.9%. It also gave a cell viability (U2OS [13]; 10000 nM) of 103%, a cell viability (Vero E6 [14]; 1 nM) of 95.3% and a cell viability (Vero E6 [14]; 10 nM) of 93.2%. The cell viability (Vero E6 [14]; 100 nM) was 96.6%, the cell viability (Vero E6 [14]; 1000 nM) was 93.8% and the cell viability (Vero E6 [14]; 10000 nM) was 104%. For the same molecule, the cell viability (Calu-3 [15]; 1 nM) was 99.8%, the cell viability (Calu-3 [15]; 10 nM) was 98.3% and the cell viability (Calu-3 [15]; 100 nM) was 92.4%. The cell viability (Calu-3 [15]; 1000 nM) was 92.7% and the cell viability (Calu-3 [15]; 10000 nM) was 105%.

With Cc1cc(C)c(NC(=O)C2CC3CCC2C3)c(C)c1 (stereo not given) [ML-213] the “relative viability EC50” value (HepG2 [1]) was greater than 10 µM, the “relative viability EC50” value (Caco-2 [2]) was greater than 10 µM and the “relative viability EC50” value (U2OS [3]) was greater than 10 µM. For the same molecule, the “relative viability EC50” value (Vero E6 [4]) was greater than 10 µM, the “relative viability EC50” value (Calu-3 [5]) was greater than 10 µM and the drug sensitivity score (HepG2 [6]) was 0. The drug sensitivity score (Caco-2 [7]) was 0, the drug sensitivity score (U2OS [8]) was 0 and the drug sensitivity score (Vero E6 [9]) was 0. The drug sensitivity score (Calu-3 [10]) was 0, the cell viability (HepG2 [11]; 1 nM) was 103% and the cell viability (HepG2 [11]; 10 nM) was 104%. For the same molecule, the cell viability (HepG2 [11]; 100 nM) was 99.9%, the cell viability (HepG2 [11]; 1000 nM) was 104% and the cell viability (HepG2 [11]; 10000 nM) was 101%. The cell viability (Caco-2 [12]; 1 nM) was 107%, the cell viability (Caco-2 [12]; 10 nM) was 82.4% and the cell viability (Caco-2 [12]; 100 nM) was 93.7%. For the same molecule, the cell viability (Caco-2 [12]; 1000 nM) was 98.4%, the cell viability (Caco-2 [12]; 10000 nM) was 99.8% and the cell viability (U2OS [13]; 1 nM) was 105%. The cell viability (U2OS [13]; 10 nM) was 100%, the cell viability (U2OS [13]; 100 nM) was 99.8% and the cell viability (U2OS [13]; 1000 nM) was 103%. The cell viability (U2OS [13]; 10000 nM) was 104%, the cell viability (Vero E6 [14]; 1 nM) was 93.3% and the cell viability (Vero E6 [14]; 10 nM) was 98.4%. For the same molecule, the cell viability (Vero E6 [14]; 100 nM) was 96.3%, the cell viability (Vero E6 [14]; 1000 nM) was 90.3% and the cell viability (Vero E6 [14]; 10000 nM) was 100%. For the same molecule, the cell viability (Calu-3 [15]; 1 nM) was 105%, the cell viability (Calu-3 [15]; 10 nM) was 96.5% and the cell viability (Calu-3 [15]; 100 nM) was 92%. It also gave a cell viability (Calu-3 [15]; 1000 nM) of 106% and a cell viability (Calu-3 [15]; 10000 nM) of 95.3%.
